This is an account of results in patent US11692436B2, “Molecular tracers and modified proppants for monitoring underground fluid flows” (National Technology & Engineering Solutions of Sandia, LLC, priority 2014, dated 2023).

This data set can be described thus: Elution studies: tracer release from an infused porous proppant pack under constant solvent flow. Conditions: proppant pack infused with 4. In kind it is physicochemical. How it is done: Elution studies: Laboratory experiments designed to mimic fluid flow through hydraulically-fractured zones in a subsurface well that contain a ceramic proppant were conducted. In general, the experimental setup uses a cartridge pump to send the desired solvent fluid (either aqueous or hydrocarbon) at a constant rate through a small “proppant pack” to a fraction collector. The proppant pack consists of porous proppants that have been infused with the metal salen compounds which are packed into a plastic syringe equipped with a fine mesh proppant retention screen at the entrance tip. The pore volume—a measure of the fluid volume within the pack of proppant pellets—is measured. The proppant pack is then sealed at the top with a rubber septum to generate pressure to force the exiting fluid into tubing for transport to the collection test tubes in the fraction collector. Samples were collected over many pore volumes and the concentrations of metal complexes in the samples were measured by either Atomic Absorption Spectrophotometry (AAS) or Raman spectroscopy after the desired number of pore volumes had passed over the proppant pack. […] This retardation of tracer release in the early stage of use is important as it will extend the useful life of the tracer in practical applications, as the total amount of tracer that can be loaded is limited by the porosity of the proppant and solubility of the M-L metal complex.
(iii) Elution data. As mentioned previously, in order for the prepared metal-salen ligand complexes to be useful in tracking fluid flows the infused complexes must elute from the underground proppants upon exposure to the produced fluid, and remain soluble until they are analyzed above-ground. […]
Second, the testing solvent can be either an aqueous salt solution that simulates a formation brine or a long-chain hydrocarbon (such as Isopar L) to mimic the organic products. […] The amount of eluted tracer could also be measured using quantitative Raman spectroscopy. […]

As for “[(κ^4-(O,N,N′,O′)saloPh-Bu^t)Mg(py)2].tol [Compound 4]”, the “level of eluted Mg-salen complex” value turned out to be 176 ppb (aliquot taken after four pore volumes had been collected (initial phase)), 29 ppb (intermediate sampling at the 20 pore volume mark) and 9 ppb (latter stages of testing at the ~40 pore volume mark).
